Measurements: the CheMixHub viscosity set

Test: xn = mol fraction of the nth substance listed

ClC=C(Cl)Cl + CCOCCO
viscosity [mPa·s], 101.33 kPa
Conditions	x1 = 0.1191	x1 = 0.2226	x1 = 0.3214	x1 = 0.4322	x1 = 0.5234	x1 = 0.6128	x1 = 0.7066	x1 = 0.8105	x1 = 0.9057
303.15 K	1.453	1.286	1.134	0.976	0.865	0.769	0.687	0.614	0.557
313.15 K	1.166	1.052	0.946	0.829	0.747	0.676	0.612	0.555	0.511

CC(O)CO (stereo not given) + CN1CCCC1=O
101.33 kPa
Conditions	viscosity [mPa·s]
298.15 K, x2 = 0.03556	37.57
298.15 K, x2 = 0.09927	27.77
298.15 K, x2 = 0.195	18.05
298.15 K, x2 = 0.3013	11.78
298.15 K, x2 = 0.4032	8.207
298.15 K, x2 = 0.5025	5.965
298.15 K, x2 = 0.5936	4.558
298.15 K, x2 = 0.6967	3.452
298.15 K, x2 = 0.7994	2.682
298.15 K, x2 = 0.9144	2.042
298.15 K, x2 = 0.942	1.918
308.15 K, x2 = 0.05805	19.68
308.15 K, x2 = 0.1023	16.23
308.15 K, x2 = 0.1977	11.09
308.15 K, x2 = 0.2949	8.059
308.15 K, x2 = 0.407	5.667
308.15 K, x2 = 0.5051	4.3
308.15 K, x2 = 0.5903	3.441
308.15 K, x2 = 0.7066	2.66
308.15 K, x2 = 0.7992	2.172
308.15 K, x2 = 0.8842	1.81
308.15 K, x2 = 0.9388	1.623
318.15 K, x2 = 0.05313	12.45
318.15 K, x2 = 0.1009	10.51
318.15 K, x2 = 0.1905	7.664
318.15 K, x2 = 0.2992	5.559
318.15 K, x2 = 0.4025	4.21
318.15 K, x2 = 0.5017	3.319
318.15 K, x2 = 0.5999	2.697
318.15 K, x2 = 0.6946	2.204
318.15 K, x2 = 0.7967	1.805
318.15 K, x2 = 0.8916	1.507
318.15 K, x2 = 0.9393	1.378

O=C1CCCC1 + CN(C)c1ccccc1
viscosity [mPa·s], 101 kPa
Conditions	303.15 K	308.15 K
x2 = 0.0705	1.022	0.948
x2 = 0.1321	1.04	0.964
x2 = 0.2014	1.062	0.981
x2 = 0.2754	1.083	0.997
x2 = 0.3412	1.101	1.011
x2 = 0.4012	1.114	1.023
x2 = 0.4825	1.13	1.039
x2 = 0.5612	1.143	1.053
x2 = 0.6405	1.153	1.066
x2 = 0.7025	1.158	1.076
x2 = 0.7758	1.164	1.087
x2 = 0.8512	1.168	1.096
x2 = 0.9215	1.169	1.104

O=C1CCCC1 + CNC=O
viscosity [mPa·s], 101 kPa
Conditions	x2 = 0.0865	x2 = 0.1756	x2 = 0.2675	x2 = 0.3623	x2 = 0.4601	x2 = 0.5611	x2 = 0.6654	x2 = 0.7732	x2 = 0.8847
303.15 K	1.041	1.104	1.165	1.226	1.293	1.355	1.412	1.467	1.532
308.15 K	0.9797	1.035	1.09	1.144	1.204	1.258	1.309	1.358	1.414
313.15 K	0.9075	0.9589	1.01	1.059	1.114	1.164	1.21	1.255	1.307
318.15 K	0.8512	0.8981	0.9442	0.9895	1.039	1.085	1.127	1.167	1.215

CC(O)CO (stereo not given) + CO
viscosity [mPa·s], 101 kPa
Conditions	x1 = 0.1	x1 = 0.2	x1 = 0.3	x1 = 0.4	x1 = 0.5	x1 = 0.6	x1 = 0.7	x1 = 0.8	x1 = 0.9
298.15 K	0.8967	1.436	2.244	3.432	5.254	7.972	12.13	18.51	28.39
308.15 K	0.7629	1.187	1.814	2.731	4.083	6.016	8.726	12.53	17.88
318.15 K	0.6278	0.9689	1.457	2.129	3.054	4.33	6.037	8.242	11.2

Cc1ccccn1 + CO
101 kPa
Conditions	viscosity [mPa·s]
298.23 K, x1 = 0.4451	0.774
298.23 K, x1 = 0.5511	0.782
298.25 K, x1 = 0.1201	0.641
298.28 K, x1 = 0.6483	0.784
298.28 K, x1 = 0.8299	0.76
303.15 K, x1 = 0.2351	0.671
303.16 K, x1 = 0.1201	0.6
303.22 K, x1 = 0.6483	0.733
303.22 K, x1 = 0.8299	0.714
303.25 K, x1 = 0.4451	0.722
303.26 K, x1 = 0.5511	0.729
308.17 K, x1 = 0.1201	0.562
308.23 K, x1 = 0.6483	0.686
308.23 K, x1 = 0.8299	0.669
308.25 K, x1 = 0.5511	0.682
308.26 K, x1 = 0.4451	0.676
308.38 K, x1 = 0.2351	0.625
313.21 K, x1 = 0.2351	0.587
313.22 K, x1 = 0.1201	0.522
313.27 K, x1 = 0.6483	0.645
313.27 K, x1 = 0.8299	0.631
313.28 K, x1 = 0.4451	0.633
313.28 K, x1 = 0.5511	0.641
318.25 K, x1 = 0.2351	0.55
318.26 K, x1 = 0.1201	0.49
318.29 K, x1 = 0.6483	0.606
318.29 K, x1 = 0.8299	0.592
318.35 K, x1 = 0.5511	0.601
318.36 K, x1 = 0.4451	0.594

ClC=C(Cl)Cl + CO
viscosity [mPa·s], 101 kPa
Conditions	293.15 K	303.15 K	313.15 K	323.15 K
x2 = 0.017	0.554	0.507	0.466	0.429
x2 = 0.057	0.56	0.509	0.466	0.427
x2 = 0.152	0.58	0.523	0.476	0.435
x2 = 0.1523	–	0.56	0.524	0.473
x2 = 0.286	0.605	0.541	0.485	0.441
x2 = 0.3071	–	0.55	0.518	0.4735
x2 = 0.446	–	0.54	0.511	0.473
x2 = 0.562	0.656	0.576	0.508	0.452
x2 = 0.5963	–	0.53	0.505	0.474
x2 = 0.6	0.667	0.581	0.513	0.455
x2 = 0.699	0.674	0.59	0.519	0.461
x2 = 0.72	0.67	0.587	0.517	0.458
x2 = 0.756	–	0.518	0.497	0.475
x2 = 0.78	0.663	0.578	0.508	0.45
x2 = 0.9011	–	0.508	0.492	0.476
x2 = 0.92	0.62	0.543	0.477	0.423

O=C1CCCC1 + COC(=O)c1ccccc1
viscosity [mPa·s], 101 kPa
Conditions	x2 = 0.0744	x2 = 0.1523	x2 = 0.2344	x2 = 0.3214	x2 = 0.418	x2 = 0.5133	x2 = 0.6186	x2 = 0.737	x2 = 0.8638
303.15 K	1.058	1.115	1.176	1.223	1.284	1.339	1.407	1.481	1.573
313.15 K	0.91	0.946	0.984	1.026	1.071	1.116	1.164	1.218	1.285

ClC=C(Cl)Cl + COCCO
viscosity [mPa·s], 101.33 kPa
Conditions	x1 = 0.1175	x1 = 0.2132	x1 = 0.3211	x1 = 0.4746	x1 = 0.5328	x1 = 0.6149	x1 = 0.7063	x1 = 0.8042	x1 = 0.9056
303.15 K	1.317	1.181	1.041	0.86	0.804	0.731	0.659	0.597	0.546
313.15 K	1.074	0.981	0.88	0.746	0.703	0.648	0.591	0.543	0.504

NC1CCCCC1 + COCCO
308.15 K, 101 kPa
Conditions	viscosity [mPa·s]
x2 = 0.1393	1.314
x2 = 0.267	1.303
x2 = 0.3844	1.298
x2 = 0.4927	1.29
x2 = 0.593	1.294
x2 = 0.6861	1.283
x2 = 0.7727	1.263
x2 = 0.8536	1.254
x2 = 0.9291	1.242

ClC=C(Cl)Cl + COc1ccccc1
303.15 K, 101.3 kPa
Conditions	viscosity [mPa·s]
x2 = 0.1234	0.523
x2 = 0.1791	0.541
x2 = 0.2335	0.561
x2 = 0.2818	0.577
x2 = 0.4018	0.623
x2 = 0.5204	0.672
x2 = 0.5501	0.682
x2 = 0.648	0.73
x2 = 0.7243	0.765
x2 = 0.8135	0.814

NC1CCCCC1 + CS(C)=O
303.15 K, 101 kPa
Conditions	viscosity [mPa·s]
x2 = 0.1	1.571
x2 = 0.1807	1.518
x2 = 0.2707	1.481
x2 = 0.3707	1.467
x2 = 0.4679	1.47
x2 = 0.5654	1.497
x2 = 0.6703	1.542
x2 = 0.7894	1.611
x2 = 0.8913	1.692

O=C(CO)[C@@H](O)[C@H](O)[C@H](O)CO + CS(C)=O
viscosity [mPa·s], 101 kPa
Conditions	x1 = 0.04904	x1 = 0.07411	x1 = 0.106	x1 = 0.1269	x1 = 0.151	x1 = 0.1722	x1 = 0.1979	x1 = 0.2243
298.15 K	3.98	6.037	10.34	14.99	23.48	35.39	59.46	104.7
308.15 K	3.096	4.529	7.33	10.21	15.13	21.64	34.14	55.88
318.15 K	2.48	3.507	5.442	7.283	10.35	14.17	21.19	32.62

O=C(CO)[C@@H](O)[C@H](O)[C@H](O)CO + C[N+](C)(C)CCO.[Cl-]
100 kPa, x2 = 0.6
Conditions	viscosity [mPa·s]
313.2 K	1645
318.2 K	1057

Cc1ccccn1 + Cc1ccccc1
viscosity [mPa·s], 101 kPa
Conditions	x2 = 0.2	x2 = 0.4	x2 = 0.6	x2 = 0.8
293.15 K	0.76	0.714	0.668	0.624
313.15 K	0.593	0.558	0.525	0.494
